{"source": "patent US20230147249A1", "about": "“METHODS OF APPLYING A FUMIGANT TO REDUCE FUSARIUM CONTAMINATION” (Taminco BV, priority 2020, published 2023)", "key": {"[1]": {"tested_on": "F. oxysporum f. sp. cubense", "assay": "Panama disease analysis of soil samples after metam sodium soil injection", "format": "in vivo, Fusarium oxysporum f. sp. cubense Tropical Race 4", "details": "any of the treated groups (750-3000 L/ha); any day post application", "description": "(§1) Metam Sodium Application. Metam sodium 510 SL (equivalent to 42% w/w) was applied to soil at the following doses: 0 liters per hectare (L/ha), 750 L/ha, 1500 L/ha, 2250 L/ha, 3000 L/ha.\n(§2) Prior to injection, soil was prepared using a rototiller to break the soil structure from 0 cm to 80 cm deep, allowing for the smooth and even injection application by an injection machine. The soil was then leveled and made uniform, and the metam sodium was applied at two depths: 30 cm and 60 cm, using injection methods. The temperature was at a minimum of 10 QC and soil humidity was between 50 and 60% holding capacity, allowing the applied product to transform from metam sodium (liquid) to MITC (gas).\n(§3) The application was made using an injection machine wherein the machine lowered shanks and began moving forward such that the shanks lowered to a depth of 60 cm and injectors applied the metam sodium into the soil. When the injection at 60 cm was complete, the process was repeated for the entire field at 30 cm. The treated soil in the field was then sealed using a packer roller (which was part of the injection machinery, located at the back end of the machine), after each application.\nSoil Analysis. Soil samples were obtained at 20, 40, and 60 cm before application and every 24 hours beginning 48 hours after application, for seven days.\nPlant Pathology Analysis. […]"}, "[2]": {"tested_on": "Foc TR4 chlamydospores", "assay": "Efficacy of metam sodium on Foc TR4 chlamydospores in vitro (colony growth on PDA plates)", "format": "cell-based, Fusarium oxysporum f. sp. cubense Tropical Race 4", "description": "Foc TR4 chlamydospores were extracted from infested soil and incubated with a dilution series of metam sodium for 5 min and 60 min at room temperature. Thereafter, the samples were diluted 10× to get reduction of the treatment and sufficient dilution of chlamydospores to avoid lack of resolution when grown on plate. Aliquots of 100 μl were plated on PDA plates in duplicate and incubated for 3 days at 25° C. Plates were photographed and scored."}, "[3]": {"tested_on": "Cavendish banana plants", "assay": "Field trial: growth and development of banana plants after metam sodium soil injection at 30 cm and 60 cm", "format": "in vivo, Cavendish banana (Musa)", "description": "The analyses described in this example were carried out in the Philippines in a field in which Musa trees (specifically bananas) were to be planted, in the spring (beginning in March). Final determinations were carried out in September of the same year.\nas §1, §2, §3\nPlant Selection and Transplantation. Cavendish banana plants were used for this investigation. In order to avoid plants already contaminated by other soil, all plants were produced in vitro using art-recognized methods. Plants were transplanted into the field 14 days after the final soil reading was taken (21 days after treatment).\nData Gathering. Data were gathered at monthly intervals beginning three months after banana plants were transplanted. A total of three data collection sessions were conducted. Data including the number of leaves, plant height, and girth size were collected."}, "[4]": {"details": "750 L/ha, six months after treatment"}, "[5]": {"details": "1500 L/ha, six months after treatment"}, "[6]": {"details": "2250 L/ha, six months after treatment"}, "[7]": {"details": "3000 L/ha, six months after treatment"}}, "data": [{"smiles": "CNC(=S)[S-].[Na+]", "note": "[metam sodium, sodium N-methyldithiocarbamate]", "values": [{"measurement": "Foc TR4 detection in soil", "setting": "[1]", "result": "No Foc TR4 was detected"}, {"measurement": "effect of prolonged incubation on number of surviving chlamydospores (growing colonies)", "setting": "[2]; 100× dilution, 60 min versus 5 min", "result": "more effective in reducing the number of surviving chlamydospores"}, {"measurement": "efficacy on Foc TR4 colony growth", "setting": "[2]; dilution of 10×, incubation time 5 minutes", "result": "effective"}, {"measurement": "efficacy on Foc TR4 colony growth", "setting": "[2]; dilution of 100×, 5 and 60 minutes", "result": "less effective"}, {"measurement": "reduction in viability of Foc TR4 chlamydospores (colony growth)", "setting": "[2]; first test, dilutions from 1000 up to 10×10^6-fold, 60 min", "result": "No significant reduction in viability"}, {"measurement": "efficacy against Foc TR4 chlamydospores", "setting": "[2]; in vitro conditions, dependent on high concentrations", "result": "effective against Foc TR4 chlamydospores"}, {"measurement": "efficacy on surviving chlamydospores", "setting": "[2]; second test, 10× and 100× dilutions", "result": "(partially) effective"}, {"measurement": "number of chlamydospores that survived", "setting": "[2]; second test, dilutions of 1000× and more", "result": "did not affect the number of chlamydospores that survived"}, {"measurement": "effect on average girth size of banana plant", "setting": "[3]; 750 L/ha", "result": "~1", "unit": "cm"}, {"measurement": "increase in average height of banana plant", "setting": "[3]; 750 L/ha", "result": "~5", "unit": "cm"}, {"measurement": "effect on plants reaching bagging stage", "setting": "[3]; [4]", "result": "did not have a meaningful effect"}, {"measurement": "percent of plants at either shooting or bagging stage", "setting": "[3]; [4]", "result": 11, "unit": "%"}, {"measurement": "percent of plants at shooting stage", "setting": "[3]; [4]", "result": 9, "unit": "%"}, {"measurement": "increase in average girth size of banana plant", "setting": "[3]; 1500-3000 L/ha", "result": "4-6 cm"}, {"measurement": "increase in average height of banana plant", "setting": "[3]; 1500-3000 L/ha", "result": "20-23 cm"}, {"measurement": "percent of plants at either shooting or bagging stage", "setting": "[3]; [5]", "result": 28, "unit": "%"}, {"measurement": "percent of plants at shooting stage", "setting": "[3]; [5]", "result": 10, "unit": "%"}, {"measurement": "percent of plants at bagging stage", "setting": "[3]; 1500 to 3000 L/ha, six months after treatment", "result": "11-19%"}, {"measurement": "percent of plants at either shooting or bagging stage", "setting": "[3]; [6]", "result": 27, "unit": "%"}, {"measurement": "percent of plants at shooting stage", "setting": "[3]; [6]", "result": 17, "unit": "%"}, {"measurement": "percent of plants at either shooting or bagging stage", "setting": "[3]; [7]", "result": 35, "unit": "%"}, {"measurement": "percent of plants at shooting stage", "setting": "[3]; [7]", "result": 22, "unit": "%"}, {"measurement": "increase of average number of leaves per banana plant", "setting": "[3]; regardless of dose applied (750-3000 L/ha), versus 0 L/ha", "result": "roughly 1.5 fold"}]}]}
